pEC50, pIC50: −log10 of the molar value.
Key:
HRH2 = HRH2 (Homo sapiens, UniProt P25021); assay: SAFETYscan cAMP HRH2 Agonist; format: cell-based
Excerpt: (§1) Supplement jm3c00155_si_002.xlsx, sheet "SAFETYScan" | column: RC50 (uM); Max Response

DAT = DAT (Homo sapiens, UniProt Q01959); assay: SAFETYscan Transporter DAT Blocker; format: cell-based
Excerpt: as §1

PDE4D2 = PDE4D2 (Homo sapiens, UniProt Q08499); assay: SAFETYscan Enzymatic PDE4D2 Inhibitor; format: biochemical
Excerpt: as §1

ARID3A mRNA = ARID3A mRNA in Karpas 422 tumour xenografts (quantitative RT-PCR); format: in vivo, mouse; conditions: 50 mg/kg PO, 12 h post dose, TaqMan PCR
Description: frozen in liquid nitrogen, dedicating one half to PK analysis and the other half to pharmacodynamic analysis (PD). All frozen material was permanently stored in a -80°C freezer.
5.3.5 Tumour lysis and Wes method
Tumours were lysed in lysis buffer (50 mM Tris-HCl, pH 7.4, 150 mM NaCl, 1% Triton X-100 (v/v), 1 mM PMSF, 1 mM activated sodium vanandate, 1 mM EDTA, phosphatase inhibitors 2 and 3 (1:50m dilution) and protease cocktail (1:100 dilution)) using reinforced homogenizing tubes containing metal beads using a Precellys 24 with cryolys cooling at 6000 rpm, 2 × 20 s (Stretton Scientific). Lysates were incubated on ice for 15 minutes, spun at 14000 rpm at 4 °C for 10 minutes and supernatants collected and aliquoted.
Samples were stored at -80 °C until use. Protein concentration was determined by diluting 1:10 with lysis buffer and measuring on Direct Detect® spectrometer according to manufacturer’s instructions.
Protein lysates were diluted to 0.0875 mg/ml with 0.1x sample buffer and run on Wes 12-230 kDa kit according to manufacturer’s instructions (ProteinSimple) with multiplexing BCL6 (CST14895 at 1:150 dilution) and GAPDH (CST 2118 at 1:50 dilution). Data was analysed using Compass for SW software. […]
5.3.6 Quantitative RT-PCR […]
(ThermoFisher Scientific). ARID3A expression relative to vehicle-treated tumours was determined using […]

HTR2B = HTR2B (Homo sapiens, UniProt P41595); assay: SAFETYscan Calcium Flux HTR2B Agonist; format: cell-based
Sequence of HTR2B (P41595 whole entry): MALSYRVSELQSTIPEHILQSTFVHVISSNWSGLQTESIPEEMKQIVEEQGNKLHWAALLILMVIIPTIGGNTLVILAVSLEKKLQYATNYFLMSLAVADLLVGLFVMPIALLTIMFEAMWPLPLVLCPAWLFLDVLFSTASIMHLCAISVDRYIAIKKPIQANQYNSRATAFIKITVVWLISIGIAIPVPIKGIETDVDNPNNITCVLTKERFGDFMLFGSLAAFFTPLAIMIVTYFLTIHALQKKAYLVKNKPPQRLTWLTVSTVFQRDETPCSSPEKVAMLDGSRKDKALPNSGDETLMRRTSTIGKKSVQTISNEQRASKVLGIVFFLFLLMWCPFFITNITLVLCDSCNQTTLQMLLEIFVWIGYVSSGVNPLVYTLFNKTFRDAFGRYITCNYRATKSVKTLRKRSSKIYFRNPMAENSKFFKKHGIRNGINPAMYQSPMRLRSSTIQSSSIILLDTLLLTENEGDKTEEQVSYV
Excerpt: as §1

CNR2 [1] = biological target: T1, CNR2 (Homo sapiens, UniProt P34972); assay: SAFETYscan cAMP CNR2 Antagonist; format: cell-based
T1 sequence (P34972 whole entry): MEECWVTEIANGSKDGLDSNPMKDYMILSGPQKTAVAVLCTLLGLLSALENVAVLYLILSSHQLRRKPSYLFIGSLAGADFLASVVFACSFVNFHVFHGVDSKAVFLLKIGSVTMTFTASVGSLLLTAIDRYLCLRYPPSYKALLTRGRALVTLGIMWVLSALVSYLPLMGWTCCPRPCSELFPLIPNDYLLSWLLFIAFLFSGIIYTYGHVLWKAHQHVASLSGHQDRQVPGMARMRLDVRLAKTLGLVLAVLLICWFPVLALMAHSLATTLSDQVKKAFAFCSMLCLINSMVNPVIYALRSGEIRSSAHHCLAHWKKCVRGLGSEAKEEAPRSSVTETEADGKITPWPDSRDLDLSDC
Excerpt: as §1

ADRB2 = ADRB2 (Homo sapiens, UniProt P07550); assay: SAFETYscan cAMP ADRB2 Agonist; format: cell-based
Sequence of ADRB2 (P07550 whole entry): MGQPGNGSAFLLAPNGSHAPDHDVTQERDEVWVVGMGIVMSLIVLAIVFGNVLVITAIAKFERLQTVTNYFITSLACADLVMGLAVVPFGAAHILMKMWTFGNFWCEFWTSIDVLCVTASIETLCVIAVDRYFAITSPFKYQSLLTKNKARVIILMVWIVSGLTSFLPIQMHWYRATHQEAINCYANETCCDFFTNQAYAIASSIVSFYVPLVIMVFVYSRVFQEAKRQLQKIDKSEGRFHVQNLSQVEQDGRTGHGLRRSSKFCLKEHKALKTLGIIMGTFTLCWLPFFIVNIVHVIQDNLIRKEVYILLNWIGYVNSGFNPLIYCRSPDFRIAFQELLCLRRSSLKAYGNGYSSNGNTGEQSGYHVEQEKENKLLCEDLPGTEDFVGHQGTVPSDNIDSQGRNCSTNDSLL
Excerpt: as §1

CNR2 [2] = biological target: T1, CNR2; assay: SAFETYscan cAMP CNR2 Agonist; format: cell-based
Excerpt: Supplement jm3c00155_si_002.xlsx, sheet "SAFETYScan" | column: RC50 (uM); Hill; Max Response

EDNRA = biological target: T2, EDNRA (Homo sapiens, UniProt P25101); assay: SAFETYscan Calcium Flux EDNRA Antagonist; format: cell-based
T2 sequence (P25101 21-427): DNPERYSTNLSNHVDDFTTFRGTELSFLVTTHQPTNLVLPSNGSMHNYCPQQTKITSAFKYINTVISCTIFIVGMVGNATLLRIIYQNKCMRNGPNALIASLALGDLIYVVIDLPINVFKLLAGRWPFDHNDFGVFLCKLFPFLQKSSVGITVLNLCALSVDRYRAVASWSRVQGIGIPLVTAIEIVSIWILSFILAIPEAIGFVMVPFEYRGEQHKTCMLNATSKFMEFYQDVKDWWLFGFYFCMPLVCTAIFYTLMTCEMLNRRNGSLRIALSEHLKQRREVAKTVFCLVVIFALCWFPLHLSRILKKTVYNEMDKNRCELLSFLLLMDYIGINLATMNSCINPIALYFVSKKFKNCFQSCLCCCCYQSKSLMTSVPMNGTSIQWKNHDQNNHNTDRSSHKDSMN
Excerpt: as §1

HTR3A = biological target: T3, HTR3A (Homo sapiens, UniProt P46098); assay: SAFETYscan Ion Channel HTR3A Opener; format: cell-based
T3 sequence (P46098 24-478): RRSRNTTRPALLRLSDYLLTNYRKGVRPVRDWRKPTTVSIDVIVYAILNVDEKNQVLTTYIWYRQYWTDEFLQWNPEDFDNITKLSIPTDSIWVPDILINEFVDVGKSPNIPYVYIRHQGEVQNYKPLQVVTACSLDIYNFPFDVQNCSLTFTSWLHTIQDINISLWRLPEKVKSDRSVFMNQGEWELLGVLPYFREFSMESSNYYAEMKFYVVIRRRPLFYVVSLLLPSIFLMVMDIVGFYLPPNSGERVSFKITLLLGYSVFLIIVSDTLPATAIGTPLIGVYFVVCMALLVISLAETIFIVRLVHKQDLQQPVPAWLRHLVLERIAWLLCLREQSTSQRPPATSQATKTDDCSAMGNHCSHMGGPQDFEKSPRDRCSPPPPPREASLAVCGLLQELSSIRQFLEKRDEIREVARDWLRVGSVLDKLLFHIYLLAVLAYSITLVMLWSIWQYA
Excerpt: as §1

CCKAR = biological target: T4, CCKAR (Homo sapiens, UniProt P32238); assay: SAFETYscan Calcium Flux CCKAR Antagonist; format: cell-based
T4 sequence (P32238 1-428): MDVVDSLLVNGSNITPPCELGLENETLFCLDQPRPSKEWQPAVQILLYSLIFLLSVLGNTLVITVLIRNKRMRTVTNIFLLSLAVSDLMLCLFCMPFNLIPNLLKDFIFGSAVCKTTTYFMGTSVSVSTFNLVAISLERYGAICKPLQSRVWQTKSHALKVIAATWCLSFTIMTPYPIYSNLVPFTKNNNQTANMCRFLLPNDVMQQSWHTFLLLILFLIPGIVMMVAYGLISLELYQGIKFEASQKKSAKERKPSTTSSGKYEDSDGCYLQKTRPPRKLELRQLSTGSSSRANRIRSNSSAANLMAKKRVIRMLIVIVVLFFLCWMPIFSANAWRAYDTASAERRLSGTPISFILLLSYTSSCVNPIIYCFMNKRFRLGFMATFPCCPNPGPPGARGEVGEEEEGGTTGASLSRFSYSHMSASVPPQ
Excerpt: as §1

Sequence of HRH2 (P25021 whole entry): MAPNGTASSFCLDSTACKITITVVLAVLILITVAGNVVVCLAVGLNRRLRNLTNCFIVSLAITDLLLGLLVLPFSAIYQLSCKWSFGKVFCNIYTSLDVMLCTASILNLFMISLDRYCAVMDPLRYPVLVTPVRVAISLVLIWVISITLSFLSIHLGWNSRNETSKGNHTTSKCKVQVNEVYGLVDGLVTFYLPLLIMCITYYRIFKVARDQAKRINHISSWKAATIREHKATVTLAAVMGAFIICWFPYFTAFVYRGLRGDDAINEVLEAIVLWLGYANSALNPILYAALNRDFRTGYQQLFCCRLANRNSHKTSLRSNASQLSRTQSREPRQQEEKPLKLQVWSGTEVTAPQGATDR
Sequence of DAT (Q01959 whole entry, species assumed): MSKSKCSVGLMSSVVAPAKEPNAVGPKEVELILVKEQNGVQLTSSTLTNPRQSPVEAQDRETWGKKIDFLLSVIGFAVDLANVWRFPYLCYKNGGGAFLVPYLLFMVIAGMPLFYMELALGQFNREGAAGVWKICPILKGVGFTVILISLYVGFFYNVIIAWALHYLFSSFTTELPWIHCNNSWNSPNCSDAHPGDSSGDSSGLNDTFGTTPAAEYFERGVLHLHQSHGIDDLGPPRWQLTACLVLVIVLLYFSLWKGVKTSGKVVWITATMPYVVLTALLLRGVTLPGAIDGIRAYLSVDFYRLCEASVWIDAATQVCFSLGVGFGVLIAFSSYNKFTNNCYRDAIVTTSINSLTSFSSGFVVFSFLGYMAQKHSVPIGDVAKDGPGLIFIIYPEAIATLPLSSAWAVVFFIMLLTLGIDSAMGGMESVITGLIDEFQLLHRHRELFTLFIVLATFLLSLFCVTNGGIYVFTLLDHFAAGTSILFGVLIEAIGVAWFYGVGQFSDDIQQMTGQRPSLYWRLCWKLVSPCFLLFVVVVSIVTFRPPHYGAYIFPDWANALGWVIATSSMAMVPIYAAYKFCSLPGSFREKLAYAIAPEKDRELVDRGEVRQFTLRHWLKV
Sequence of PDE4D2 (Q08499 303-809 limits assumed): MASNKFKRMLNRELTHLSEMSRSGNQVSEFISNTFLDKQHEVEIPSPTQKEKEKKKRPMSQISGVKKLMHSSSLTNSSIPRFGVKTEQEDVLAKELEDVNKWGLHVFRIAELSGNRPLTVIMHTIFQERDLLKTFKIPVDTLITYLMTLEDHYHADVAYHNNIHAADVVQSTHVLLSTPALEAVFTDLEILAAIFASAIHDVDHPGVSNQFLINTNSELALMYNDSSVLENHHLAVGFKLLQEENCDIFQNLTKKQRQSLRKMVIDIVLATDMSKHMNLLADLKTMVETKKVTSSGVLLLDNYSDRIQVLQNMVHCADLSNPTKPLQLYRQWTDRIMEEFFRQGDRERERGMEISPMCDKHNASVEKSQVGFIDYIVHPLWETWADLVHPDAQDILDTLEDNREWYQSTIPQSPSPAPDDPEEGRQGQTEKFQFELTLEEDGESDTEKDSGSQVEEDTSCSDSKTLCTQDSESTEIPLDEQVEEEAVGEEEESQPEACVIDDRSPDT

SMILES: Cn1c(=O)c2c(c3cc(Nc4ccnc(F)c4Cl)ccc31)N[C@@H](C1CC1)C(F)(F)CO2 [compound 17, (S)-10-((3-chloro-2-fluoropyridin-4-yl)amino)-2-cyclopropyl-3,3-difluoro-7-methyl-1,2,3,4-tetrahydro-[1,4]oxazepino[2,3-c]quinolin-6(7H)-one]
- Emax (HRH2; read-out: Max Response): 0%
- pEC50 (HRH2; read-out: RC50 (EC50)): < 5.00
- pIC50 (DAT): < 5.00
- Emax (DAT; DAT, Transporter, Blocker, read-out: Max Response): 0%
- Emax (PDE4D2; read-out: Max Response): 15%
- pIC50 (PDE4D2; read-out: RC50 (IC50)): < 5.00
- ARID3A mRNA expression in tumor xenografts (ARID3A mRNA): significant increase in ARID3A mRNA expression
- pEC50 (HTR2B): < 5.00
- Emax (HTR2B; HTR2B, Calcium Flux, Agonist, read-out: Max Response): 0%
- pIC50 (CNR2 [1]): < 5.00
- Emax (CNR2 [1]; CNR2, cAMP, Antagonist, read-out: Max Response): 0%
- Emax (ADRB2; read-out: Max Response): 0%
- pEC50 (ADRB2; read-out: RC50 (EC50)): < 5.00
- pEC50 (CNR2 [2]): 5.86
- Hill (CNR2 [2]; CNR2, cAMP, Agonist): 0.61
- Emax (CNR2 [2]; CNR2, cAMP, Agonist, read-out: Max Response): 77.7%
- Emax (EDNRA; read-out: Max Response): 0%
- pIC50 (EDNRA; read-out: RC50 (IC50)): < 5.00
- pEC50 (HTR3A): < 5.00
- Emax (HTR3A; HTR3A, Ion Channel, Opener, read-out: Max Response): 0%
- Emax (CCKAR; read-out: Max Response): 0%
- pIC50 (CCKAR; read-out: RC50 (IC50)): < 5.00

Reference: PMC10150366, “Discovery of an In Vivo Chemical Probe for BCL6 Inhibition by Optimization of Tricyclic Quinolinones” (Journal of Medicinal Chemistry, 2023)
